Experimental data as given in patent US6410792B1, “Amide derivatives and methods for using the same as selective neuropeptide Y receptor antagonists” (Bayer Corporation, priority 1997, dated 2002).

How the values were obtained:
[1] = target: human Y4/PP1 receptor (Homo sapiens, UniProt P50391); experiment: Human Y4/PP1 receptor binding assay ([125I]human PP, membrane protein); settings: [125I]human PP, membrane protein; read-out: hNPY4 IC50
Procedure: B. Human Y2 and Y4/PP1 Receptor Binding Assays
Binding assays were performed on GF/C Millipore 96-well plates pretreated with 0.02% polyethylenimine. The binding buffer for rat Y2 binding is Krebs-Ringer bicarbonate (pH 7.4) containing 0.01% BSA and 0.005% bacitracin. Samples consist of membrane protein, 25 pM [1251]PYY and drug dilution. Nonspecific binding is defined by 1 μM NPY. The binding buffer for human Y4/PP1 binding consists of 137 mM NaCl, 5.4 mM KCl, 0.44 mM KH2PO4, 1.26 mM CaCl2, 0.81 mM MgSO4, 20 mM HEPES, 1 mM dithiothreitol, 0.1% bacitracin, 100 mg/l streptomycin sulfate, 1 mg/l aprotinin, 10 mg/ml soybean trypsin inhibitor and 0.3% BSA, pH 7.4. Samples consist of membrane protein, 50 pM human [1251]human PP (hPP: NEN DuPont, Boston, Mass.) and drug dilution. 1 μM hPP is used to define nonspecific binding.
After a 2 hour incubation at room temperature with constant mixing, the samples are aspirated on a vacuum manifold, and rinsed with ice-cold binding buffer. The amount of radioactivity in each well is quantitated with either gamma counting or liquid scintillation.

[2] = target: T1, Y2 receptor (Homo sapiens, UniProt P49146); experiment: Y2 receptor binding assay ([125I]PYY, membrane protein); settings: [125I]PYY, membrane protein; read-out: hNPY2 IC50
T1 sequence (P49146 1-381): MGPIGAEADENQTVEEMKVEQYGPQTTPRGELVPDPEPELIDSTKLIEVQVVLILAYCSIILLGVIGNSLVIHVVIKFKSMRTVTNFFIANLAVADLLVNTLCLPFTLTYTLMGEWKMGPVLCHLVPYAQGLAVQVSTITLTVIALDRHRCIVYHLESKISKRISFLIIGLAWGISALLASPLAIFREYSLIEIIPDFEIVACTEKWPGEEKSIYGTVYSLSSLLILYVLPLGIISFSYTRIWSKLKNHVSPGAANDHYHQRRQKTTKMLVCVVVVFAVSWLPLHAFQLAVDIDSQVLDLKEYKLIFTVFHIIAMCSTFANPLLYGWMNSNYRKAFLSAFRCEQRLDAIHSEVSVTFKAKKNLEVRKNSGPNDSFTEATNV
Outline: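 Filtration binding with membrane protein and drug dilution, 2 h at room temperature with mixing, radioactivity counted by gamma or scintillation. Y2: 25 pM [125I]PYY in Krebs-Ringer bicarbonate pH 7.4 with 0.01% BSA, nonspecific by 1 μM NPY. Y4/PP1: 50 pM [125I]hPP in HEPES-buffered saline pH 7.4 with protease inhibitors and 0.3% BSA, nonspecific by 1 μM hPP.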

[3] = target: T2, Rat NPY5 receptor (Rattus norvegicus, UniProt Q63634); experiment: Rat NPY5 receptor binding assay ([125I]PYY, membrane protein); settings: [125I]PYY, read-out: rNPY5 IC50
T2 sequence (Q63634 1-445): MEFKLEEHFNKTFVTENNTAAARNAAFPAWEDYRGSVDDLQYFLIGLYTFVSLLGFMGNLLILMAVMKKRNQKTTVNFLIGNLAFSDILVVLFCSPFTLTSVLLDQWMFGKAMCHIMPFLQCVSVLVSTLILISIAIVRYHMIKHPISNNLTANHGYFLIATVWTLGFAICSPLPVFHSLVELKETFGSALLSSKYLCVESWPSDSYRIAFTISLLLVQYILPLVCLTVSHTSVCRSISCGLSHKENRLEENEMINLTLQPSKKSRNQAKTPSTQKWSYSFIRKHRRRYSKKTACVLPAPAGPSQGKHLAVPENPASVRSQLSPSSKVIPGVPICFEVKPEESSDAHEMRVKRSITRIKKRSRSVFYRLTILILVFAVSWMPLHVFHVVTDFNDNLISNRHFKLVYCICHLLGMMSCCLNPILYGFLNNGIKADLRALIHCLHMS
Outline: (§1)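 Membrane protein was incubated with 75-100 pM porcine [125I]PYY and test compound for 2 hours at room temperature with constant mixing in pH 7.4 Tris buffer containing NaCl, KCl, CaCl2, MgSO4, 0.1% BSA and bacitracin. Nonspecific binding was defined with 1 μM PYY. Bound radioactivity was counted after filtration.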

[4] = target: T3, Human NPY5 receptor (Homo sapiens, UniProt Q15761); experiment: Human NPY5 receptor binding assay ([125I]PYY, membrane protein); settings: [125I]PYY, read-out: hNPY5 IC50
T3 sequence (Q15761 1-445): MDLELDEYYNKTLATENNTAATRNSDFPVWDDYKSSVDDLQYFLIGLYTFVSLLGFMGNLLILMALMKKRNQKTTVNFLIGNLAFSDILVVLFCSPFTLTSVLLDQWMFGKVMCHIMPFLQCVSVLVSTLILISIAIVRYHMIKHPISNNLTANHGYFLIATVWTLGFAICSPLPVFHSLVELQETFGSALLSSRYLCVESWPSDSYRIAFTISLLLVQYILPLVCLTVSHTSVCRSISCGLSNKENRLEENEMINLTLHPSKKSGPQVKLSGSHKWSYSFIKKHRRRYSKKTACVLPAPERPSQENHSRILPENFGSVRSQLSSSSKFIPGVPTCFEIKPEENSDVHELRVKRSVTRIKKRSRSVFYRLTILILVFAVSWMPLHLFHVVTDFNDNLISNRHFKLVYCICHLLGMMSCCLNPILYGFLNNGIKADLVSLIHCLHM
Outline: as §1

[5] = target: T4, Human NPY1 receptor (Homo sapiens, UniProt P25929); experiment: Human NPY1 receptor binding assay ([125I]PYY, SK-N-MC cells); settings: [125I]PYY, SK-N-MC cells; read-out: hNPYI IC50
T4 construct: host or cells: SK-N-MC cells
T4 sequence (P25929 1-384): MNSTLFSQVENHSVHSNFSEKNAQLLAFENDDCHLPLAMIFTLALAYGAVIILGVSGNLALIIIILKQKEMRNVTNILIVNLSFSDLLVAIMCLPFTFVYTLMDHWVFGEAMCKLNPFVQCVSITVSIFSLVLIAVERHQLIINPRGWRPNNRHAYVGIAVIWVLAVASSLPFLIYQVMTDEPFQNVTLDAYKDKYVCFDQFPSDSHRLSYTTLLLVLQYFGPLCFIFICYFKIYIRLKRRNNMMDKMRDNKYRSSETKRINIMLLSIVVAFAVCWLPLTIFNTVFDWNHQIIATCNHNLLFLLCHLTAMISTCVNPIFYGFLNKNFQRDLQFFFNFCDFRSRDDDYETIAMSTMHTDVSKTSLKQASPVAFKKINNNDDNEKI
Procedure: A. Human NPY1 Receptor Binding Assay
This is a modification of Gordon et al., (J. Neurochem. 55:506-513, 1990). SK-N-MC cell (ATCC, Rockville, Md.) were plated in 24-well plates. Once confluent, cells were rinsed with Dulbecco's phosphate buffered saline (DPBS). Cells were then preincubated in binding buffer containing serum-free DMEM, 25 mM HEPES (pH 7.3), 0.5% bovine serum albumin (BSA), 0.1% bacitracin and 0.1 mM phenylmethylsulfonylfluoride for 30 minutes at room temperature. Drug dilution and [125I]PYY (˜50 pM: NEN-DuPont) were added to the wells, and the cells were incubated for an additional 3 hours at room temperature, followed by rinsing with ice-cold DPBS. Nonspecific binding was defined with 1 μM NPY. After lysing the cells with 1% Triton X-100, the amount of radioactivity in the lysates was quantitated with a gamma counter.

Chain of human Y4/PP1 receptor (P50391 whole entry): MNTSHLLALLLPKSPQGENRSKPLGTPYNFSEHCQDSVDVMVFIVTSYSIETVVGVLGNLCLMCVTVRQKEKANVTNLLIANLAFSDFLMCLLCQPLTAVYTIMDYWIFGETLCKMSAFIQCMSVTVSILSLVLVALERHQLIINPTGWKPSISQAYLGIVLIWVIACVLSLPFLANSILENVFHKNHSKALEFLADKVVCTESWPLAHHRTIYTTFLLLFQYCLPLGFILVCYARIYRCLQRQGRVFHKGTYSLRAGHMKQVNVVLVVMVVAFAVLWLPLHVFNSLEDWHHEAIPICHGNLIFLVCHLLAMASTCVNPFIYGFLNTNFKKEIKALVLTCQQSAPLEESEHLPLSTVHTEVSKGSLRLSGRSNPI

O.O=C(CN1CCC(n2c(=O)[nH]c3ccccc32)CC1)Nc1ccc(-c2cnco2)cc1 (hydrate or solvate) [Compound 267, N-(4-Oxazol-5-yl-phenyl)-2-[4-(2-oxo-2,3-dihydro-benzoimidazol-1-yl)-piperidin-1-yl]-acetamide; hydrate]
melting point: 177 to 178 °C

O=C(CN1CCC(n2c(=O)[nH]c3ccccc32)CC1)NCC1CCCO1 (stereo not shown) [Compound 285, 2-[4-(2-Oxo-2,3-dihydro-benzoimidazol-1-yl)-piperidin-1-yl]-N-(tetrahydro-furan-2-ylmethyl)-acetamide]
melting point: 179 to 180 °C
IC50 [1]: > 5 µM
IC50 [2]: > 5 µM

O=C(CN1CCC(n2c(=O)[nH]c3ccccc32)CC1)NC1CCCC1.O=C(O)C(=O)O [Compound 288, N-Cyclopentyl-2-[4-(2-oxo-2,3-dihydro-benzoimidazol-1-yl)-piperidin-1-yl]-acetamide; compound with oxalic acid]
melting point: 217 to 218 °C
IC50 [1]: > 5 µM
IC50 [2]: > 5 µM

CC(C)OCCCNC(=O)CN1CCC(n2c(=O)[nH]c3ccccc32)CC1 [Compound 289, N-(3-Isopropoxy-propyl)-2-[4-(2-oxo-2,3-dihydro-benzoimidazol-1-yl)-piperidin-1-yl]-acetamide]
melting point: 67 to 68 °C

Cl.O=C(CN1CCC(n2c(=O)[nH]c3ccccc32)CC1)N1CCCCCCC1 [Compound 305, 1-[1-(2-Azocan-1-yl-2-oxo-ethyl)-piperidin-4-yl]-1,3-dihydro-benzoimidazol-2-one; hydrochloride]
melting point: 158 °C
IC50 [1]: > 5 µM
IC50 [2]: > 5 µM

Cl.O=C(CN1CCC(n2c(=O)[nH]c3ccccc32)CC1)Nc1cccc2c1C(=O)c1ccccc1-2 [Compound 307, 2-[4-(2-Oxo-2,3-dihydro-benzoimidazol-1-yl)-piperidin-1-yl]-N-(9-oxo-9H-fluoren-1-yl)-acetamide; hydrochloride]
melting point: 204 °C
IC50 [1]: > 5 µM
IC50 [2]: > 5 µM

O=C(CN1CCC(n2c(=O)[nH]c3ccccc32)CC1)N1CCCCCC1 [Compound 309, 1-[1-(2-Azepan-1-yl-2-oxo-ethyl)-piperidin-4-yl]-1,3-dihydro-benzoimidazol-2-one]
melting point: 166 °C
IC50 [1]: > 5 µM
IC50 [2]: > 5 µM

CC(=O)Nc1ccc(NC(=O)CN2CCC(n3c(=O)[nH]c4ccccc43)CC2)cc1 [Compound 351, N-(4-Acetylamino-phenyl)-2-[4-(2-oxo-2,3-dihydro-benzoimidazol 1-yl)-piperidin-1-yl]-acetamide, reference compound]
IC50 [3]: 0.979 µM
IC50 [4]: 0.58 µM
IC50 [1]: > 5 µM
IC50 [5]: > 5 µM
IC50 [2]: > 5 µM

CN(C)c1ccc(NC(=O)CN2CCC(n3c(=O)[nH]c4ccccc43)CC2)cc1 [Compound 353, N-(4-Dimethylamino-phenyl)-2-[4-(2-oxo-2,3-dihydro-benzoimidazol-1-yl)-piperidin-1-yl]acetamide, reference compound]
IC50 [3]: 0.187 µM
IC50 [4]: 0.135 µM
IC50 [1]: > 5 µM
IC50 [5]: > 5 µM
IC50 [2]: > 5 µM

O=C(CN1CCC(n2c(=O)[nH]c3ccccc32)CC1)Nc1ccc([N+](=O)[O-])cc1 [Compound 355, N-(4-Nitro-phenyl)-2-[4-(2-oxo-2,3-dihyro-benzoimidazol-1-yl)-piperidin-1-yl]-acetamide, reference compound]
IC50 [3]: 0.19 µM
IC50 [4]: 0.2 µM
IC50 [1]: > 5 µM
IC50 [5]: > 5 µM
IC50 [2]: > 5 µM

O=C(CN1CCC(n2c(=O)[nH]c3ccccc32)CC1)Nc1ccc(Cl)cc1 [Compound 358, N-(4-Chloro-phenyl)-2-[4-(2-oxo-2,3-dihydro-benzoimidazol-1-yl)-piperidin-1-yl]-acetamide, reference compound]
IC50 [3]: 0.443 µM
IC50 [4]: 0.73 µM
IC50 [1]: > 5 µM
IC50 [5]: > 5 µM
IC50 [2]: > 5 µM

COC(=O)c1ccc(NC(=O)CN2CCC(n3c(=O)[nH]c4ccccc43)CC2)cc1 [Compound 360, 4-(2-[4-(2-Oxo-2,3-dihydro-benzoimidazol-1-yl)-piperidin-1-yl]-acetylamino)-benzoic acid methyl ester, reference compound]
IC50 [3]: 0.0562 µM
IC50 [4]: 0.055 µM
IC50 [1]: > 5 µM
IC50 [5]: > 5 µM
IC50 [2]: > 5 µM

COc1ccc(NC(=O)CN2CCC(n3c(=O)[nH]c4ccccc43)CC2)cc1 [Compound 361, N-(4-Methoxy-phenyl)-2-[4-(2-oxo-2,3-dihydro-benzoimidazol-1-yl)-piperidin-1-yl]-acetamide, reference compound]
IC50 [3]: 0.539 µM
IC50 [4]: 0.41 µM
IC50 [1]: > 5 µM
IC50 [5]: > 5 µM
IC50 [2]: > 5 µM

N-(2-Amino-4-propylsulfnyl-phenyl)-2-[4-(2-oxo-2,3-dihydro-benzoimidazol-1-yl)-pipendin-1-yl]-acetamide; compound with GENERIC INORGANIC NEUTRAL COMPONENT [Compound 339, reference compound]
IC50 [3]: 0.031 µM
IC50 [4]: 0.034 µM
IC50 [1]: > 5 µM
IC50 [5]: > 5 µM
IC50 [2]: > 5 µM
